Reference: patent US20190359939A1, “NEW USE” (DIAMYD MEDICAL AB, priority 2015, published 2019)
“Also recorded” adds a separate entry of the source.

Assays:
[1] = tested on: DCs from murine bone marrow (CD11c+ monocytes); assay: Dendritic cell surface receptor expression (CD40, CD80, CD86, MHC Class II) by flow cytometry after cultivation with additives; format: cell-based, NOD mouse
From the text: FIG. 1: Dendritic cell (CD11c+ monocytes) surface receptor expression after cultivation with various additives. Expression as indicated by the MFI of CD11+ monocyte cells stained with fluorescent antibodies towards CD40, CD80, CD86 and MHC Class II. A: comparing cells untreated (iDCs), matured with MPLA (mDCs), and cells treated with GABA, GABA and rhGAD65, and GABA and rhGAD65 matured with MPLA. B: comparing cells untreated (iDCs), matured with MPLA (mDCs), and cells treated with GABA, GABA and alhydrogel adsobed rhGAD65, and GABA and alhydrogel adsorbed rhGAD65 matured with MPLA. C: comparing cells untreated (iDCs), matured with MPLA (mDCs), and cells treated with GABA and rhGAD65 matured with MPLA, GABA and alhydrogel adsorbed rhGAD65 matured with MPLA, and cells treated with Dex and VD3 and matured with MPLA.
FIG. 1 (A, B and C) show the surface expression pattern of CD80, CD86, CD40 and MCH Class II proteins on murine DCs treated according to different protocols.
Mouse bone marrow-derived dendritic cells (BMDCs) were generated from bone marrow cells (femura) of 8-week-old NOD mouse females in complete RPMI 1640 medium (Lonza, Basel Switzerland) in the presence of GM-CSF (20 ng/ml) and IL-4 (4.5 ng/ml, PeproTech) for 6 days. Fresh medium was added on day 3 and comparator tDCs were induced by adding dexamethasone (1 μM) and vitamin D3 (0.5 ng/ml) on day 6, while mDCs were generated without tolerogenic factors, and iDCs were untreated for the entire cultivation period. Similarly for GABA testing, GABA was added on day 6 in at a concentration of 100 μM. Exposure to antigen was achieved by adding GAD65 (either pure GAD65 protein or alum adsorbed GAD65) to the cultivation mixture on day 6 along with tolerizing agents at a concentration of 5 μg/ml. […] Cells were harvested on day 8.
Mouse DCs were characterized by flowcytometry using following mAbs purchased from eBioscience; anti-CD11c-APC (clone N418), anti-CD40-PerCP-eFluor710 (clone 1C10), anti-CD80-FITC (clone 16-10A1), anti-CD86-PE (clone GL1), and anti-MHC II (I-A/I-E) (clone MS/114.15.2). Cells were stained with fluorochrome-conjugated antibodies against surface molecules and data were acquired by LSR II flow cytometers (BD Biosciences) and analyzed using FlowJo software (Tree Star).

[2] = tested on: dendritic cells obtained from mouse bone marrow; settings: compared to LPS or mouse serum albumin treatment
Procedure: Dendritic cells obtained from mouse bone marrow are used. In order to secure a large amount of the number of the dendritic cells, Inaba's culture method (Inaba et al., J. Exp. Med. 175:1157, 1992), which is a representative method of culturing a dendritic cell, is modified and applied to the dendritic cells. […] A tibia and a femur of a mouse aged 6 to 11 weeks are extracted, and a RPMI1640 medium is added to bone marrow of the tibia and the femur to obtain bone marrow cells therefrom. Then, hypotonic ammonium chloride-potassium (ACK) lysing buffer is used for the lysis of red blood cells. The bone marrow cells are cultured in an RPMI1640 medium containing about 10 to 20 ng/ml recombinant mouse GMCSF, about 5 to 10 ng/ml recombinant mouse IL4, 5 to 10% heat inactivated fetal bovine serum, L-glutamine, 25 mM of HEPES, penicillin, and streptomycin under conditions of 5% CO2 and a temperature of 37° C., thereby inducing differentiation into dendritic cells. The medium is replaced every 2 days with a medium containing the recombinant cytokines. After 2 and 4 days of the culture, granulocytes and lymphocytes that are floating on the culture dish are removed. After 6 days of the culture, dendritic cells that are differentiated from precursor cells attached on the bottom of the culture dish and that have characteristic protrusions in suspension are used in the experiments. […]

[3] = tested on: CD11c+ DCs (IL-12 production); assay: Intracellular IL-12 expression of treated dendritic cells by FACS; format: cell-based, NOD mouse; settings: with alhydrogel adsorbed rhGAD65, activated with MPLA, FIG. 2B
From the text: FIG. 2: IL-12 production of treated dendritic cells. A: FACS plots showing the intracellular IL-12 expression of CD11c+ monocytes as percent IL-12+ cells of parent population; from left to right, untreated (iDCs), matured by MPLA (mDCs), tolerogenic by Dex and VD3 and tolerogenic by GABA. B: Column diagram of percent of parent numbers of the same groups.
In FIG. 2A, FACS plots of the intracellular expression of IL-12 of untreated CD11c+ DCs (iDCs), proinflammatory matured DCs (mDCs), DCs treated with Dex, VD3 and alhydrogel adsorbed rhGAD65 activated by MPLA, and DCs treated with GABA and alhydrogel adsorbed rhGAD65 activated by MPLA are shown. IL-12 is a proinflammatory cytokine, and low production is indicative of tolerogenic DCs. The IL-12+ cells are shown in the upper left quadrant of the plots.
Tolerogenically treated cells on the other hand generally have very low expression of IL-12. Both cells treated with Dex and VD3 and those treated with GABA, even though they have been activated with MPLA, show very low numbers of IL-12+ cells.
Mouse bone marrow-derived dendritic cells (BMDCs) were generated from bone marrow cells (femura) of 8-week-old NOD mouse females in complete RPMI 1640 medium (Lonza, Basel Switzerland) in the presence of GM-CSF (20 ng/ml) and IL-4 (4.5 ng/ml, PeproTech) for 6 days. […]

NCCCC(=O)O [GABA, gamma-aminobutyric acid]
surface protein expression profile (CD80, CD86, CD40, MHC Class II) ([1]; 100 μM GABA alone, FIG. 1A): more similar to iDCs and indicative of tDCs
tolerogenic expression pattern compared to Dexamethasone, Vitamin D and MPLA protocol ([1]; 100 μM GABA and stabilization with MPLA, FIG. 1C): comparable or better
surface molecule expression ([1]; GABA plus alhydrogel adsorbed rhGAD65, then MPLA, FIG. 1B): keep a low surface molecule expression
surface protein expression profile (CD80, CD86, CD40, MHC Class II) ([1]; GABA plus antigen GAD65 (rhGAD65), no MPLA): remains the same; also recorded: remains indicative of tDCs
surface protein expression profile (CD80, CD86, CD40, MHC Class II) ([1]; GABA plus rhGAD65, then MPLA): increases slightly but is still much lower than mDCs; also recorded: still remains almost the same
CD80 expression compared to Dex and VD3 treated cells ([1]; activated by MPLA, FIG. 1C): even lower
amount of maturation markers on the surface of the dendritic cells (CD40, CD80, CD86, MHC class II) [2]: decreased
numbers of IL-12+ cells (percentage of CD11c+ monocytes that are IL-12 positive) [3]: very low
